# Data published in patent US20250017874A1, “PHARMACEUTICAL COMPOSITIONS FOR USE IN REDUCING HYPERPIGMENTATION” (Caliway Biopharmaceuticals Co., Ltd., priority 2023, published 2025).
# pEC50: −log10 of the molar value. Read-outs that look alike come from different tables or passages of the source.
# Experiments:
# [1] = system: HRM-2 mice; experiment: In vivo efficacy: skin melanin content after UVB irradiation, different administration routes (Example 4A)
# From the text: The experiment tested a total of 20 mice using conventional diets in the adaptation period, the induction period, and the test period. After 7 days of adaptation, the mice were randomly divided into a control group and a UVB-c group according to body weight and body weight changes, so that no statistical difference in average body weight and body weight changes were noticeable among the groups. The UVB-c group was subjected to 150 mJ/cm^2/day of UVB irradiation with a frequency of irradiating the back of the mice three times a week.
# Injection frequency was once a week, three times in total, with an average injection area of 6 cm^2 skin each time. The IM01—Topical group and the color cream group were administered by smearing once a day for a total of 21 days. […] During the treatment period, the backs of the mice were irradiated with 150 mJ/cm^2/day of UVB three times a week until sacrificed. It should be noted that the timing of UVB exposure and drug administration were staggered.
# After sacrificing the mice on day 22, the skin of treatment area was collected and subjected to heat extraction with 0.4 mL NaOH for 1 hour. […] The experimental data were expressed as mean±standard deviation (n=3-5), using Student's t-test analysis, #p<0.05, ##p<0.01 compared with control group; *p<0.05, **p<0.01 compared with UVB-c group.
# [2] = system: UVB-irradiated mice skin; experiment: In vivo efficacy: skin melanin after UVB irradiation, intradermal injection or topical administration (Example 4B/4C); settings: for Melanin Mean ± SD (UVB group = 100.0): treatment period 3 weeks
# From the text: The IM01 formulation was investigated for in vivo efficacy via intradermal injection, either twice a week (IM01-ID/L) or once a day (IM01-ID/H). [table] The IM01 formulation was investigated for in vivo efficacy via topical administration (IM01-T), following the study design provided in Table 16 below. [table]
# [3] = system: B16-F10 cells; experiment: In vitro efficacy test: melanin content after α-MSH induction (Example 3); type: cell-based, mouse
# Method: Alpha-melanocyte-stimulating hormone (α-MSH) is a peptide hormone capable of inducing melanin production. In this study, the effects of 4-[(E)-2-(3,5-dihydroxyphenyl)ethenyl]benzene-1,3-diol samples (having different concentrations of 4-[(E)-2-(3,5-dihydroxyphenyl)ethenyl]benzene-1,3-diol) on inhibition of melanin production were investigated.
# B16-F10 cells were seeded in a 96-well plate at a density of 1×10^5 cells/well and cultured for 24 hours. The cells were then incubated with 0.1 μM α-MSH for 24 hours to include melanin production. The 4-[(E)-2-(3,5-dihydroxyphenyl)ethenyl]benzene-1,3-diol samples with different concentrations were then added to the cultured cells, which were cultured for an additional 24 hours. No α-MSH was used for the vehicle control group.
# After the cells were washed once with 1 mL of 1×PBS, add 300 μL of 1×Trypsin-EDTA, they were placed in a 37° C. incubator for 5 minutes. Finally, 1 mL of DMEM was added to the cells, and the number of cells were counted by Trypan blue staining.
# Cell suspension was centrifuged at 1500 g for 5 minutes at room temperature, followed by supernatant removal and air-dry of the pellet for 15 minutes. 1 N NaOH (containing 10% DMSO) was added to break up the pellet, followed by shaking by ultrasonic waves for 30 minutes and heating in a water bath at 80° C. for 1.5 hours. After cooling down, the suspension was taken and measured for absorbance at 405 nm. Results were calculated by deducting the reagent blank from the absorbance value at 405 nm and divided by the average absorbance value of the α-MSH Group.
# [4] = system: B16-F10 cells; experiment: In vitro melanin content versus arbutin and hydroquinone (Example 6); type: cell-based, mouse
# Method: Except the vehicle group, cells of the other groups were cultured with α-MSH for 24 hours first. The compositions for investigation (see Tables 19 and 20) were then added to the culture medium and the cells were further cultured for 24 hours. The rest of the experimental operation process was similar to that described in Example 3. […] [table] [table]
# [5] = system: B16-F10 cells; experiment: In vitro efficacy comparison: melanin content, α-MSH 0.5 h then test article 30 h (Example 5); type: cell-based, mouse; settings: for Melanin content (%) Mean: α-MSH 0.5 h then TA 30 h
# Method: B16-F10 cells were seeded in a 96-well plate. Except the vehicle group, cells of the other groups were cultured in the presence of α-MSH for 0.5 hours first. The compositions for examination were then added to the culture medium and the cells were further cultured for 30 hours. The rest of the experimental conditions and procedures were similar to those described in Example 3. Afterwards, the cells were collected to evaluate the effect of 4-[(E)-2-(3,5-dihydroxyphenyl)ethenyl]benzene-1,3-diol compositions (IM01 Group) and Arbutin and 5-[(E)-2-(4-hydroxyphenyl)ethenyl]benzene-1,3-diol (IM00 Group) compositions on reducing melanin levels. The experimental design is summarized in Table 18 and results shown in both Table 18 and FIG. 5.
# [6] = system: B16-F10 cell line; type: cell-based, mouse; settings: for Relative cell viability (%): mouse
# From the text: Table 23 below lists the study design for evaluating EC50 values of IM01, which contains 4-[(E)-2-(3,5-dihydroxyphenyl)ethenyl]benzene-1,3-diol.
# Table 25 below lists the study design for evaluating EC50 values of IM01, which contains 4-[(E)-2-(3,5-dihydroxyphenyl)ethenyl]benzene-1,3-diol.
# [7] = IM01-ID/H: ID, 23 mg/mL, once a day
# [8] = IM01-ID/L: ID, 23 mg/mL, twice a week
# [9] = IM01-T: topical, 45 mg/mL, once a day
smiles,measurement,setting,value
"Oc1cc(O)cc(/C=C/c2ccc(O)cc2O)c1 [IM01, 4-[(E)-2-(3,5-dihydroxyphenyl)ethenyl]benzene-1,3-diol]",Skin color compared with UVB-c group,"[1]; IM01-ID group and IM01-Topical group, intradermal injection or smearing",whiter and brighter than that of the UVB-c group
same,Melanin level lower than the UVB-c group by,"[1]; IM01-ID group, intradermal, p<0.01",33.6%
same,Percentage change of melanin Mean ± SD (% of UVB-c),"[1]; IM01-ID: intradermal, 20 mg/mL, 0.5 mg/cm^2, once a week",−33.6 ± 6.0 % of UVB-c
same,Melanin Content Mean ± SD (% of UVB-c),"[1]; IM01-ID: intradermal, 20 mg/mL, 0.5 mg/cm^2, once a week, three times, skin collected day 22",66.4 ± 6.0 % of UVB-c
same,Melanin level lower than the UVB-c group by,"[1]; IM01-Topical group, p<0.05",30.6%
same,Percentage change of melanin Mean ± SD (% of UVB-c),"[1]; IM01-Topical: 20 mg/mL, 0.4-0.5 mg/cm^2, once a day",−30.6 ± 7.6 % of UVB-c
same,Melanin Content Mean ± SD (% of UVB-c),"[1]; IM01-Topical: 20 mg/mL, 0.4-0.5 mg/cm^2, once a day for 21 days, day 22",69.4 ± 7.6 % of UVB-c
same,Reduction of melanin production,[2]; [7],23.1%
same,Melanin Mean ± SD (UVB group = 100.0),[2]; [7],76.9 ± 12.7
same,Reduction of melanin production,[2]; [8],13.9%
same,Melanin Mean ± SD (UVB group = 100.0),[2]; [8],86.1 ± 14.5
same,Reduction of melanin production,[2]; [9],21.4%
same,Melanin Mean ± SD (UVB group = 100.0),[2]; [9],79.6 ± 12.5
same,Melanin production compared with vehicle group (without α-MSH),"[3]; IM01-C4, IM01-C5 and IM01-C6 groups (22.6, 32, 64 ppm)",lower than that of the vehicle group
same,pEC50,"[3]; Mus musculus, B16-F10, printed as equal to 15.2 ppm",4.21
same,Melanin Content Inhibition Ability (%) Mean,[3]; TA 8 ppm (IM01-C1),20.1%
same,Melanin content (%) Mean,"[3]; TA 8 ppm (IM01-C1), α-MSH 0.1 μM 24 h then TA 24 h, relative to α-MSH control",79.9%
same,Melanin Content Inhibition Ability (%) Mean,[3]; TA 11.3 ppm (IM01-C2),41.1%
same,Melanin content (%) Mean,"[3]; TA 11.3 ppm (IM01-C2), α-MSH 24 h then TA 24 h",58.9%
same,Melanin Content Inhibition Ability (%) Mean,[3]; TA 16 ppm (IM01-C3),56.8%
same,Melanin content (%) Mean,"[3]; TA 16 ppm (IM01-C3), α-MSH 24 h then TA 24 h",43.2%
same,Melanin Content Inhibition Ability (%) Mean,[3]; TA 22.6 ppm (IM01-C4),66.7%
same,Melanin content (%) Mean,"[3]; TA 22.6 ppm (IM01-C4), α-MSH 24 h then TA 24 h",33.3%
same,Melanin Content Inhibition Ability (%) Mean,[3]; TA 32 ppm (IM01-C5),74%
same,Melanin content (%) Mean,"[3]; TA 32 ppm (IM01-C5), α-MSH 24 h then TA 24 h",26.0%
same,Melanin Content Inhibition Ability (%) Mean,[3]; TA 64 ppm (IM01-C6),84.6%
same,Melanin content (%) Mean,"[3]; TA 64 ppm (IM01-C6), α-MSH 24 h then TA 24 h",15.4%
same,EC50 (melanin content),[3]; α-MSH 24 h then TA 24 h,around 15.2 ppm
same,Effect in reducing melanin compared with Arbutin (450 μM or 900 μM) and hydroquinone (120 μM),[4]; 120 μM,better than that of the whitening agent Arbutin
same,Melanin content compared with vehicle group (no α-MSH induction),[4]; 120 μM,even lower than that of the vehicle group
same,Melanin content (%) Mean ± SD,"[4]; TA 30 μM, α-MSH 24 hr + TA 24 hr, Table 22 experiment",84.6 ± 3.6%
same,Melanin content (%) Mean ± SD,"[4]; TA 60 μM, Table 22 experiment",52.8 ± 3.8%
same,Melanin content (%) Mean ± SD,"[4]; TA 60 μM, α-MSH 24 hr + TA 24 hr, Table 21 experiment",47.6 ± 3.4%
same,Melanin content (%) Mean ± SD,"[4]; TA 120 μM, Table 21 experiment",26.2 ± 2.4%
same,Melanin content (%) Mean ± SD,"[4]; TA 120 μM, Table 22 experiment",33.9 ± 1.4%
same,Melanin content (%) Mean ± SD,"[4]; TA 180 μM, Table 22 experiment",11.7 ± 2.3%
same,Melanin content (%) Mean,[5]; TA 89.19 μM (IM01-20),67.4%
same,Melanin content (%) Mean,[5]; TA 178.38 μM (IM01-40),43.5%
same,"In vitro effect in reducing melanin relative to 5-[(E)-2-(4-hydroxyphenyl)ethenyl]benzene-1,3-diol and arbutin",[5]; Table 18 concentrations,better in vitro effects in reducing melanin
same,Cytotoxicity,[6],low cytotoxicity
same,Relative cell viability (%),[6]; 8 μM,98.4 ± 2.0%
same,Relative cell viability (%),[6]; 16 μM,96.7 ± 2.4%
same,Relative cell viability (%),[6]; 32 μM,98.7 ± 2.2%
same,Relative cell viability (%),[6]; 60 μM,88.5 ± 1.4%
same,Relative cell viability (%),[6]; 64 μM,93.0 ± 1.0%
same,Relative cell viability (%),[6]; 120 μM,84.9 ± 0.4%
same,Relative cell viability (%),[6]; 128 μM,89.8 ± 3.7%
same,Relative cell viability (%),[6]; 181 μM,79.9 ± 5.6%
same,Relative cell viability (%),[6]; 256 μM,74.6 ± 7.0%
